The values that follow come from patent US8383637B2, “2-amino-quinazoline derivatives useful as inhibitors of β-secretase (BACE)” (Jansssen Pharmaceutica N.V., priority 2004, dated 2013).

For experiment [1], the target named is T1, β-secretase(BACE) (Homo sapiens, UniProt P56817).
T1 construct: purchased Panvera
The experiment in a line: BACE Assay-2 (FS1 substrate, IC50 and Ki). The class given is biochemical. The conditions noted are these: procedure of Example 159, FS1 substrate; read-out: Ki μM (159). On the procedure: The FS1-substrate stock solution was prepared in DMSO as a 10 mg/mL solution. The FS1-substrate working solution was prepared by diluting the 10 mg/mL stock solution with substrate assay buffer to a final concentration of 300 μg/mL. The β-secretase (BACE) working solution was prepared by diluting a 0.83 mg/mL BACE stock solution with enzyme assay buffer to a final concentration of 4 μg/mL.
Test compounds were dissolved in DMSO at 10 mM.
The procedure for this assay was as follows: 15 μL of BACE working solution was pipetted into each well of a 96-well plate. To each well was then pipetted 2 μL of test compound at the selected concentration. Test compound and BACE were then mixed with a pipettor and incubated for 20 min at room temperature. To each well was then added 10 μL of the FS1 substrate working solution.
The procedure for the positive control was as follows: 15 μL of BACE working solution was pipetted into each well to be used as a positive control. To each well was then pipetted 2 μL of vehicle. Vehicle and BACE were then mixed with a pipettor and incubated for 20 min at room temperature. To each well was then added 10 μL of the FS1 substrate working solution.
For test compounds, measured at multiple concentrations, the measured T0 and T60 values were used to calculate an IC50 value using Graphpad Software (or PIR). For test compounds, Ki inhibition was determined as follows: For each compound concentration and positive control, rate of cleavage of substrate (Vi, where i=compound concentration in μM) was determined as Δ Fluorescence/Δ time (min). Cleavage rates (Vi) were plotted as a function of inhibitor concentration in μM [I]. The Ki was then determined by fitting the following equation to the graph of [I] vs Vi Y=aVmax/(50+24*(1+X/Ki)),

The target of experiment [2] is T1, β-secretase(BACE). The experiment in a line: BACE FS1% Inhibition Assay. The experiment is classed as biochemical. The note with it: FS1 substrate; for inhibition at 0.3 µM / % Inhibition (FS) 0.3 μM: 0.3 μM test compound; for inhibition at 0.3 µM: read-out: % Inhibition (FS) 0.3 μM; for inhibition at 1 µM: read-out: % Inhibition (FS) 1 μM; for inhibition at 3 µM: read-out: % Inhibition (FS) 3 μM. The essentials:
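Human BACE (4 μg/mL working solution) preincubated 20 min at room temperature with compound, then FS1 substrate (300 μg/mL working solution) added and incubated 1 h at room temperature. Percent inhibition calculated at each compound concentration against blank and vehicle controls.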

T1 sequence (P56817 46-501): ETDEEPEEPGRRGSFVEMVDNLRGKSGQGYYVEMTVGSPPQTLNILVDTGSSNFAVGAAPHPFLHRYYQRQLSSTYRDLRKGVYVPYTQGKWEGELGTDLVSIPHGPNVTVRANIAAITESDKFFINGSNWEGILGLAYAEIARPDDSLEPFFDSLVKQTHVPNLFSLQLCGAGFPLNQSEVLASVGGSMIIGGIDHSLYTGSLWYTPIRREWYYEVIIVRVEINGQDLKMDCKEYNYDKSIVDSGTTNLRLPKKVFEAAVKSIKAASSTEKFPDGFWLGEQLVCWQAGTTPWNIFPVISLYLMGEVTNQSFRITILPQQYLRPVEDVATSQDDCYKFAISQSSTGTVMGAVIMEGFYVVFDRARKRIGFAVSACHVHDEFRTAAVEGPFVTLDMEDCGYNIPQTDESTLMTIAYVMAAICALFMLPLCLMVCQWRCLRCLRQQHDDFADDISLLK

As to `CCC(c1cccc(C(=O)N(C2CCCCC2)C2CCCCC2)c1)N1Cc2cc(Oc3ccccc3)ccc2N=C1N` (stereo not drawn) [Compound 419], the Ki at β-secretase(BACE) [1] was 0.29 µM. Moreover, the inhibition at 0.3 µM on β-secretase(BACE) [2] is 38%. For the same molecule, the inhibition at 1 µM on β-secretase(BACE) [2] (1 μM test compound) was found to be 64%. The inhibition at 3 µM on β-secretase(BACE) [2] (3 μM test compound) came to 109%.
The corresponding values for `CN(C(=O)c1ccc(CN2Cc3cc(Oc4ccccc4)ccc3N=C2N)o1)C1CCCCC1` [Compound 424, 5-(2-Amino-6-phenoxy-4H-quinazolin-3-ylmethyl)-furan-2-carboxylic acid cyclohexyl-methyl-amide] are 0.4 µM, less than 30%, 50% and 94%.
For the molecule `CN(CCN1Cc2cc(Oc3ccccc3)ccc2N=C1N)C(=O)C1CCCCC1` [Compound 426, Cyclohexanecarboxylic acid [2-(2-amino-6-phenoxy-4H-quinazolin-3-yl)-ethyl]-methyl-amide], at β-secretase(BACE) [1], the Ki worked out at 0.53 µM. The inhibition at 0.3 µM at β-secretase(BACE) [2] is less than 30%. Besides, at β-secretase(BACE) [2] (1 μM test compound), the inhibition at 1 µM came out at 34%. For the same molecule, the inhibition at 3 µM on β-secretase(BACE) [2] (3 μM test compound) stood at 86%.
In the case of `CN(CCCN1Cc2cc(Oc3ccccc3)ccc2N=C1N)C1CCCCC1` [Compound 428, 3-[3-(Cyclohexyl-methyl-amino)-propyl]-6-phenoxy-3,4-dihydro-quinazolin-2-ylamine], at β-secretase(BACE) [1], the Ki is 0.23 µM. Moreover, on β-secretase(BACE) [2], the inhibition at 0.3 µM is less than 30%. Besides, the inhibition at 1 µM at β-secretase(BACE) [2] (1 μM test compound) is 60%. Moreover, the inhibition at 3 µM on β-secretase(BACE) [2] (3 μM test compound) turned out to be 98%.
The corresponding values for `CN(C(=O)c1cccc(CN2Cc3cc(Nc4ccccc4)ccc3N=C2N)c1)C1CCCCC1` [Compound 432] are 0.86 µM, less than 30%, 41% and 84%.
For `CC(C)[C@@H](CCC(=O)N(C)C1CCCCC1)N1Cc2cc(Oc3ccccc3)ccc2N=C1N` [Compound 444], the Ki at β-secretase(BACE) [1] worked out at 0.58 µM. Moreover, the inhibition at 0.3 µM on β-secretase(BACE) [2] was less than 30%. Besides, the inhibition at 1 µM at β-secretase(BACE) [2] (1 μM test compound) is less than 30%. Besides, the inhibition at 3 µM on β-secretase(BACE) [2] (3 μM test compound) stood at 30%.
Regarding `CN(C(=O)c1ccnc(CN2Cc3cc(Oc4ccccc4)ccc3N=C2N)c1)C1CCCCC1` [Compound 508, 2-(2-Amino-6-phenoxy-4H-quinazolin-3-ylmethyl)-N-cyclohexyl-N-methyl-isonicotinamide], the Ki on β-secretase(BACE) [1] worked out at 0.15 µM. Moreover, the inhibition at 0.3 µM at β-secretase(BACE) [2] was 31%. Moreover, on β-secretase(BACE) [2] (1 μM test compound), the inhibition at 1 µM is 74%. In addition, at β-secretase(BACE) [2] (3 μM test compound), the inhibition at 3 µM came to 113%.
The corresponding values for `CC1CCCCC1NC(=O)CCN1Cc2cc(Oc3ccccc3)ccc2N=C1N` (stereo not drawn) [Compound 511] are 0.1 µM, 34%, 85% and 113%.
The like results for `NC1=Nc2ccc(-c3ccccc3)cc2CN1CCNC(=O)C1CCCCC1` [Compound 515] were, in that order, 0.13 µM, 41%, 66% and 110%.
The like results for `CN(C(=O)c1cccc(C(C2CCCCC2)N2Cc3cc(Oc4ccccc4)ccc3N=C2N)c1)C1CCCCC1` (stereo not drawn) [Compound 534] were, in that order, 0.18 µM, 54%, 103% and 126%.
`NC1=Nc2ccc(-c3ccccc3F)cc2CN1CCNC(=O)C1CCCCC1` [Compound 535]: the Ki at β-secretase(BACE) [1] came out at 0.076 µM. Moreover, the inhibition at 0.3 µM at β-secretase(BACE) [2] was determined as 57%. Also, the inhibition at 1 µM at β-secretase(BACE) [2] (1 μM test compound) turned out to be 86%. The inhibition at 3 µM on β-secretase(BACE) [2] (3 μM test compound) was 116%.
The corresponding values for `NC1=Nc2ccc(-c3ccccc3Cl)cc2CN1CCNC(=O)C1CCCCC1` [Compound 536] are 0.086 µM, 61%, 83% and 118%.
The like results for `Cc1ccccc1-c1ccc2c(c1)CN(CCNC(=O)C1CCCCC1)C(N)=N2` [Compound 537] were, in that order, 0.041 µM, 83%, 106% and 125%.
The corresponding values for `NC1=Nc2ccc(-c3ccccc3O)cc2CN1CCNC(=O)C1CCCCC1` [Compound 538] are 0.44 µM, less than 30%, 53% and 100%.
Turning to `COc1cccc(F)c1-c1ccc2c(c1)CN(CCNC(=O)C1CCCCC1)C(N)=N2` [Compound 545], the Ki on β-secretase(BACE) [1] amounted to 0.14 µM. For the same molecule, the inhibition at 0.3 µM at β-secretase(BACE) [2] is 55%. For the same molecule, at β-secretase(BACE) [2] (1 μM test compound), the inhibition at 1 µM was 77%. Further, the inhibition at 3 µM on β-secretase(BACE) [2] (3 μM test compound) was found to be 118%.
The like results for `COc1ccccc1-c1ccc2c(c1)CN(CCC(=O)NC1C3CC4CC(C3)CC1C4)C(N)=N2` (stereo not drawn) [Compound 556] were, in that order, 0.044 µM, 103%, 118% and 126%.
With `CN(C(=O)CC[C@@H](CO)N1Cc2cc(Oc3ccccc3)ccc2N=C1N)C1CCCCC1` [Compound 558, (S)-enantiomer of 4-(2-Amino-6-phenoxy-4H-quinazolin-3-yl)-5-hydroxy-pentanoic acid cyclohexyl-methyl-amide], the Ki on β-secretase(BACE) [1] was 0.16 µM. At β-secretase(BACE) [2], the inhibition at 0.3 µM came to 42%. The inhibition at 1 µM at β-secretase(BACE) [2] (1 μM test compound) was 92%. The inhibition at 3 µM at β-secretase(BACE) [2] (3 μM test compound) is 115%.
The like results for `CC(C)[C@H](CNC(=O)C1CCCCC1)N1Cc2cc(Oc3ccccc3)ccc2N=C1N` [Compound 561] were, in that order, 0.016 µM, 114%, 118% and 125%.
The corresponding values for `CC(C)CC(=O)NC[C@@H](C(C)C)N1Cc2cc(Oc3ccccc3)ccc2N=C1N` [Compound 563] are 0.02 µM, 101%, 119% and 127%.
As for `NC1=Nc2ccc(-c3ccccc3)cc2CN1CCNC(=O)CC1CCCC1` [Compound 578], at β-secretase(BACE) [1], the Ki amounted to 0.18 µM. In addition, at β-secretase(BACE) [2], the “% Inhibition (FS) 0.3 μM” value stood at 31% and the inhibition at 0.3 µM is less than 30%.
As for `NC1=Nc2ccc(-c3cccc(CO)c3)cc2CN1CCNC(=O)CC1CCCC1` [Compound 583], the Ki on β-secretase(BACE) [1] was 0.49 µM. Also, the inhibition at 0.3 µM on β-secretase(BACE) [2] is 40%. Moreover, at β-secretase(BACE) [2] (1 μM test compound), the inhibition at 1 µM came out at 56%. The inhibition at 3 µM at β-secretase(BACE) [2] (3 μM test compound) worked out at 86%.
For `CCCC(CNC(=O)C1CCCCC1)N1Cc2cc(Oc3ccccc3)ccc2N=C1N` (stereo not drawn) [Compound 601], the Ki at β-secretase(BACE) [1] was 0.027 µM. For the same molecule, the “% Inhibition (FS) 0.3 μM” value at β-secretase(BACE) [2] turned out to be 105%. Moreover, on β-secretase(BACE) [2] (1 μM test compound, 1 µM), the “% Inhibition (FS) 1 μM” value amounted to 115%. The “% Inhibition (FS) 3 μM” value on β-secretase(BACE) [2] (3 μM test compound, 3 µM) worked out at 121%.
In the case of `CONC1=Nc2ccc(-c3ccccc3OC)cc2CN1Cc1cccc(C(=O)N(C)C2CCCCC2)c1` [Compound 605, N-Cyclohexyl-3-[2-methoxyamino-6-(2-methoxy-phenyl)-4H-quinazolin-3-ylmethyl]-N-methyl-benzamide], the Ki on β-secretase(BACE) [1] was 0.54 µM. In addition, the inhibition at 0.3 µM on β-secretase(BACE) [2] is 47%. In addition, at β-secretase(BACE) [2] (1 μM test compound), the inhibition at 1 µM came out at 72%. On β-secretase(BACE) [2] (3 μM test compound), the inhibition at 3 µM amounted to 111%.
As to `COc1ccccc1-c1ccc2c(c1)CN(CCC(=O)NC1CCCCC1)C(N)=N2` [Compound 610], the Ki on β-secretase(BACE) [1] is 0.076 µM. Besides, the inhibition at 0.3 µM at β-secretase(BACE) [2] was found to be 75%. In addition, the inhibition at 1 µM at β-secretase(BACE) [2] (1 μM test compound) stood at 106%. On β-secretase(BACE) [2] (3 μM test compound), the inhibition at 3 µM stood at 119%.
The corresponding values for `CN(C(=O)CCN1Cc2cc(Oc3ccccc3)ccc2N=C1N)C1C2CC3CC(C2)CC1C3` (stereo not drawn) [Compound 618] are 0.19 µM, less than 30%, 70% and 104%.
The like results for `CN(C(=O)CCC(C1CCOCC1)N1Cc2cc(Oc3ccccc3)ccc2N=C1N)C1CCCCC1` (stereo not drawn) [Compound 619] were, in that order, 0.011 µM, 119%, 118% and 125%.
Take `NC1=Nc2ccc(-c3cccc(Cl)c3)cc2CN1CCNC(=O)C1CCCCC1` [Compound 625]: the Ki at β-secretase(BACE) [1] worked out at 0.27 µM. Also, on β-secretase(BACE) [2], the inhibition at 0.3 µM is less than 30%. In addition, the inhibition at 1 µM on β-secretase(BACE) [2] (1 μM test compound) is 54%. Further, on β-secretase(BACE) [2] (3 μM test compound), the inhibition at 3 µM worked out at 95%.
The like results for `Cc1cccc(-c2ccc3c(c2)CN(CCNC(=O)C2CCCCC2)C(N)=N3)c1` [Compound 627] were, in that order, 0.16 µM, 39%, 75% and 105%.
